The structures appear in SMILES notation.

One experiment has as its system E. coli. In words: Phototoxicity on Gram-negative bacteria, colony counting. Type of experiment: cell-based, E. coli XL-1. Particulars: 1 h incubation, illuminated. How it is done: (§1) (ii) Bacterial cultures. Bacteria of strains St. albus and E. coli XL-1 were cultured in liquid LB medium (E. coli in LB containing 12.5 μg tetracyclin/ml) to a final density of OD600 nm=0.5-0.9 (1 OD=8×10^8 bacteria/ml). The bacteria were spun down (4000×g, 5 min.) and resuspended in PBS.
(§2) (b) Bacterial. To determine the photodynamic efficacy, bacteria were diluted to aliquots of 300 μl containing about 10^7 bacteria, and incubated with increasing concentrations of sensitizer in plastic test tubes in the dark for 1 h at room temperature, and then illuminated at 70 mW/cm^2 for 15 min. Samples of the treated bacteria cultures were subsequently plated at different dilutions (50-200 bacteria/plate) on LB agar and cultured for 24 h at 37° C. for determination of bacterial survival by colony counting. Triplicate determinations were conducted and representative experiments are shown.
(§3) The phototoxicity of positively-charged compound 5 was tested on Gram-positive St. albus and Gram-negative E. coli bacteria in comparison to the negatively-charged Pd 3^1-oxo-15-methoxycarbonylmethyl-Rhodobacteriochlorin 13^1-(2-sulfoethyl)amide dipotassium salt (described in PCT/IL03/00973). Bacteria were incubated with increasing concentrations of the sensitizers for 1 h and illuminated or kept in the dark. […] Gram-positive bacteria St. albus, was 100 times more sensitive to compound 5 than Gram-negative E. coli. No phototoxicity was observed when bacteria were incubated and treated with the same sensitizers' concentration range without illumination (dark controls).

In a further experiment the target is St. albus. In words: Phototoxicity on Gram-positive bacteria, colony counting. The experiment is classed as cell-based. As to conditions: 1 h incubation, illuminated 15 min at 70 mW/cm^2; read-out: Kd (phototoxicity). How it is done:
as §1, §2, §3

With `CCC1C2=Cc3c(C)c(C(=O)NCCS(=O)(=O)[O-])c4[n]3[Pd][n]3c(c(C)c(C(C)=O)c3=CC(=N2)C1C)=CC1=NC(=C4CC(=O)OC)C(CCC(=O)[O-])C1C.[K+].[K+]` (centres unmarked) [Pd 3^1-oxo-15-methoxycarbonylmethyl-Rhodobacteriochlorin 13^1-(2-sulfoethyl)amide dipotassium salt, reference compound], in the experiment on E. coli, the “effectiveness against Gram-negative E. coli” value was “not against Gram-negative E. coli”. At St. albus, the phototoxic killing concentration came to 300 nM.

For the origin of these results see US8207154B2, “Catatonic bacteriochlorophyll derivatives” (Yeda Research and Development Co., Ltd., priority 2005, dated 2012).
